The record followed here is patent publication US20230002320A1, “COMPOUNDS AND COMPOSITIONS FOR TREATING CONDITIONS ASSOCIATED WITH STING ACTIVITY” (IFM Due, Inc., priority 2019, published 2023).

For this assay, the target named is hSTING (Homo sapiens, UniProt Q86WV6). As to the kind of experiment: STING reporter assay (luciferase) in THP1-Dual KO-IFNAR2 cells activated with 2'3' cGAMP. The note with it: 15 μM 2'3' cGAMP, 24 h. It is filed as cell-based. The protocol: STING pathway activation by the compounds described herein was measured using THP1-Dual™ cells (KO-IFNAR2).
THP1-Dual™ KO-IFNAR2 Cells (obtained from invivogen) were maintained in RPMI, 10% FCS, 5 ml P/S, 2 mM L-glut, 10 mM Hepes, and 1 mM sodium pyruvate. Compounds were spotted in empty 384 well tissue culture plates (Greiner 781182) by Echo for a final concentration of 0.0017-100 μM. Cells were plated into the TC plates at 40 μL per well, 2×10E6 cells/mL. For activation with STING ligand, 2′3′ cGAMP (MW 718.38, obtained from Invivogen), was prepared in Optimem media.
The following solutions were prepared for each 1×384 plate: • Solution A: 2 mL Optimem with one of the following stimuli: • 60 uL of 10 mM 2′3′ cGAMP ->150 μM stock • Solution B: 2 mL Optimem with 60 μL Lipofectamine 2000->Incubate 5 min at RT
2 mL of solution A and 2 ml Solution B was mixed and incubated for 20 min at room temperature (RT). 20 uL of transfection solution (A+B) was added on top of the plated cells, with a final 2′3′ cGAMP concentration of 15 μM. The plates were then centrifuged immediately at 340 g for 1 minute, after which they were incubated at 37° C., 5% CO2, >98% humidity for 24 h. Luciferase reporter activity was then measured. EC50 values were calculated by using standard methods known in the art.
Luciferase reporter assay: 10 μL of supernatant from the assay was transferred to white 384-plate with flat bottom and squared wells. one pouch of QUANTI-Luc™ Plus was dissolved in 25 mL of water. 100 μL of QLC Stabilizer per 25 mL of QUANTI-Luc™ Plus solution was added. 50 μL of QUANTI-Luc™ Plus/QLC solution per well was then added. Luminescence was measured on a Platereader (e.g., Spectramax I3X (Molecular Devices GF3637001)).
Luciferase reporter activity was then measured. EC50 values were calculated by using standard methods known in the art.
Luciferase reporter assay: 10 μL of supernatant from the assay was transferred to white 384-plate with flat bottom and squared wells, one pouch of QUANTI-Luc™ Plus was dissolved in 25 mL of water. 100 μL of QLC Stabilizer per 25 mL of QUANTI-Luc™ Plus solution was added. 50 μL of QUANTI-Luc™ Plus/QLC solution per well was then added. Luminescence is measured on a Platereader (e.g., Spectramax I3X (Molecular Devices GF3637001)).

Sequence of hSTING (Q86WV6 whole entry R71H/G230A/H232R/R293Q, form open): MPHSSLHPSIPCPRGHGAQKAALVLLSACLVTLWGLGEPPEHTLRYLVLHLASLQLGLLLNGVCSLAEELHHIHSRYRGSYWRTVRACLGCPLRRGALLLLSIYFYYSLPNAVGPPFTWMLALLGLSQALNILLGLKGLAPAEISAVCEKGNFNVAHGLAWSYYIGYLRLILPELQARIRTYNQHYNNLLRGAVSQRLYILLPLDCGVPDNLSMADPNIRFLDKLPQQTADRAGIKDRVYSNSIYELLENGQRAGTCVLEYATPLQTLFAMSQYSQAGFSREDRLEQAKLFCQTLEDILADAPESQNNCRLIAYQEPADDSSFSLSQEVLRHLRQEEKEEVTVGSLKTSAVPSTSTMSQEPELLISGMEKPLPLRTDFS

On to `O=C(Nc1ccc(C(F)(F)F)cc1)Nc1c[nH]c2ccc(-c3ccccc3)cc12` [Compound 101, 1-(5-phenyl-1H-indol-3-yl)-3-(4-(trifluoromethyl)phenyl)urea], for which the EC50 is 200 to 1000 nM.
For `CC(C)n1cc(-c2ccc3[nH]cc(NC(=O)Nc4ccc(C(F)(F)F)cc4)c3c2)cn1` [Compound 104, 1-(5-(1-isopropyl-1H-pyrazol-4-yl)-1H-indol-3-yl)-3-(4-(trifluoromethyl)phenyl)urea], the EC50 is 40 to 200 nM.
Consider `O=C(Nc1ccc(C(F)(F)F)cc1)Nc1c[nH]c2ccc(-c3ccc(CO)c(F)c3)cc12` [Compound 127, 1-(5-(3-fluoro-4-(hydroxymethyl)phenyl)-1H-indol-3-yl)-3-(4-(trifluoromethyl)phenyl)urea], for which the EC50 is 200 to 1000 nM.
To `CCCCCCc1ccc(-c2ccc3[nH]cc(NC(=O)Nc4ccc(C(F)(F)F)cc4)c3c2)cc1` [Compound 211, 1-(5-(4-hexylphenyl)-1H-indol-3-yl)-3-(4-(trifluoromethyl)phenyl)urea] belongs 200 to 1000 nM.
In the case of `O=C(Nc1ccc(C(F)(F)F)cc1)Nc1c[nH]c2cc(F)c(-c3cnn(C(F)F)c3)cc12` [Compound 212, 1-(5-(1-(difluoromethyl)-1H-pyrazol-4-yl)-6-fluoro-1H-indol-3-yl)-3-(4-(trifluoromethyl)phenyl)urea], the concentration for a half-maximal effect (EC50) was 40 to 200 nM.
For `CC(C)n1cc(-c2cc3c(NC(=O)Nc4ccc(C(F)(F)F)cc4)c[nH]c3cc2F)cn1` [Compound 213], the EC50 was 200 to 1000 nM.
`Cn1ccc(-c2ccc3[nH]cc(NC(=O)Nc4ccc(C(F)(F)F)cc4)c3c2)n1` [Compound 214, 1-(5-(1-methyl-1H-pyrazol-3-yl)-1H-indol-3-yl)-3-(4-(trifluoromethyl)phenyl)urea] displayed an EC50 of 1000 to 5000 nM.
To `CN(C)C(=O)c1ccc(-c2ccc3[nH]cc(NC(=O)Nc4ccc(C(F)(F)F)cc4)c3c2)c(F)c1` [Compound 215] belongs 200 to 1000 nM; to `N#Cc1csc(-c2ccc3[nH]cc(NC(=O)Nc4ccc(C(F)(F)F)cc4)c3c2)c1` [Compound 216], 40 to 200 nM.
`CC(C)(C#N)c1ccc(-c2ccc3[nH]cc(NC(=O)Nc4ccc(C(F)(F)F)cc4)c3c2)cc1` [Compound 217] yielded an EC50 of 5000 to 100000 nM.
In the case of `O=C(Nc1ccc(C(F)(F)F)cc1)Nc1c[nH]c2ccc(-c3ccc(OC(F)F)cc3)cc12` [Compound 218], the EC50 fell in the range of 200 to 1000 nM.
`CN(C)C(=O)c1ccc(-c2ccc3[nH]cc(NC(=O)Nc4ccc(C(F)(F)F)cc4)c3c2)cc1` [Compound 219] displayed an EC50 of 200 to 1000 nM.
Turning to `O=C(Nc1ccc(C(F)(F)F)cc1)Nc1c[nH]c2ccc(-c3cccc(OC(F)(F)F)c3)cc12` [Compound 220], the EC50 lay within 200 to 1000 nM.
With `O=C(Nc1ccc(C(F)(F)F)cc1)Nc1c[nH]c2ccc(-c3cccc4ncccc34)cc12` [Compound 221, 1-(5-(quinolin-5-yl)-1H-indol-3-yl)-3-(4-(trifluoromethyl)phenyl)urea] the figure was 200 to 1000 nM; with `O=C(Nc1ccc(C(F)(F)F)cc1)Nc1c[nH]c2ccc(-c3c(F)cccc3F)cc12` [Compound 222], 1000 to 5000 nM; with `CC(C)c1ccc(-c2ccc3[nH]cc(NC(=O)Nc4ccc(C(F)(F)F)cc4)c3c2)cc1` [Compound 223, 1-(5-(4-isopropylphenyl)-1H-indol-3-yl)-3-(4-(trifluoromethyl)phenyl)urea], 200 to 1000 nM.
To `O=C(Nc1ccc(C(F)(F)F)cc1)Nc1c[nH]c2ccc(-c3cccc4cccnc34)cc12` [Compound 224, 1-(5-(quinolin-8-yl)-1H-indol-3-yl)-3-(4-(trifluoromethyl)phenyl)urea] belongs 1000 to 5000 nM; to `COc1cccc(-c2ccc3[nH]cc(NC(=O)Nc4ccc(C(F)(F)F)cc4)c3c2)c1` [Compound 225], 200 to 1000 nM.
The compound `O=C(Nc1ccc(C(F)(F)F)cc1)Nc1c[nH]c2ccc(-c3cccc(Cl)c3)cc12` [Compound 226] came in with an EC50 of 200 to 1000 nM.
`O=C(Nc1ccc(C(F)(F)F)cc1)Nc1c[nH]c2ccc(-c3cc(Cl)nc(Cl)c3)cc12` [Compound 227] returned an EC50 of 200 to 1000 nM.
`COCc1cncc(-c2ccc3[nH]cc(NC(=O)Nc4ccc(C(F)(F)F)cc4)c3c2)c1` [Compound 228] displayed a concentration for a half-maximal effect (EC50) of 200 to 1000 nM.
The compound `O=C(Nc1ccc(C(F)(F)F)cc1)Nc1c[nH]c2ccc(-c3cncc(Cl)c3)cc12` [Compound 229] yielded an EC50 of 200 to 1000 nM.
`O=C(Nc1ccc(C(F)(F)F)cc1)Nc1c[nH]c2ccc(-c3cccnc3)cc12` [Compound 230]: the concentration giving a half-maximal response (EC50) lay within 200 to 1000 nM.
Compound `CC(=O)c1ccc(-c2ccc3[nH]cc(NC(=O)Nc4ccc(C(F)(F)F)cc4)c3c2)s1` [Compound 231] registered an EC50 of 200 to 1000 nM.
In turn, `N#CCCn1cc(-c2ccc3[nH]cc(NC(=O)Nc4ccc(C(F)(F)F)cc4)c3c2)cn1` [Compound 232] returned an EC50 of 200 to 1000 nM.
With `O=C(Nc1ccc(C(F)(F)F)cc1)Nc1c[nH]c2ccc(-c3cnn(-c4ccccc4)c3)cc12` [Compound 234] the figure was 40 to 200 nM; with `O=C(Nc1ccc(C(F)(F)F)cc1)Nc1c[nH]c2ccc(-c3cnn(CC4CC4)c3)cc12` [Compound 235], 40 to 200 nM; with `COCCn1cc(-c2ccc3[nH]cc(NC(=O)Nc4ccc(C(F)(F)F)cc4)c3c2)cn1` [Compound 236], 200 to 1000 nM.
With `CCn1cc(-c2ccc3[nH]cc(NC(=O)Nc4ccc(C(F)(F)F)cc4)c3c2)cn1` [Compound 237], the EC50 lay in the range of 40 to 200 nM.
The compound `CCCc1ccc(-c2ccc3[nH]cc(NC(=O)Nc4ccc(C(F)(F)F)cc4)c3c2)cc1` [Compound 238] had an EC50 of 1000 to 5000 nM.
The compound `O=C(Nc1ccc(C(F)(F)F)cc1)Nc1c[nH]c2ccc(-c3ccc(Cl)c(Cl)c3)cc12` [Compound 239] gave an EC50 of 1000 to 5000 nM.
Consider `O=C(Nc1ccc(C(F)(F)F)cc1)Nc1c[nH]c2ccc(-c3cc(F)cc(F)c3)cc12` [Compound 240], for which the concentration giving a half-maximal response (EC50) was in the range of 200 to 1000 nM.
As to `O=C(Nc1ccc(C(F)(F)F)cc1)Nc1c[nH]c2ccc(-c3ccc(F)c(F)c3)cc12` [Compound 241], the EC50 is 1000 to 5000 nM.
In turn, `O=C(Nc1ccc(C(F)(F)F)cc1)Nc1c[nH]c2ccc(-c3ccc(F)cc3F)cc12` [Compound 242] yielded an EC50 of 1000 to 5000 nM.
Consider `CC(C)n1cc(-c2ccc3[nH]cc(NC(=O)Nc4ccc(C5CCCCC5)nc4)c3c2)cn1` [Compound 243], for which the concentration giving a half-maximal response (EC50) was 200 to 1000 nM.
Consider `Nc1cc(-c2ccc3[nH]cc(NC(=O)Nc4ccc(C(F)(F)F)cc4)c3c2)ccn1` [Compound 274, 1-(5-(2-aminopyridin-4-yl)-1H-indol-3-yl)-3-(4-(trifluoromethyl)phenyl)urea], for which the EC50 is 1000 to 5000 nM.
To `O=C(Nc1ccc(C(F)(F)F)cc1)Nc1c[nH]c2ccc(-c3ccc(CO)cc3)cc12` [Compound 282, 1-(5-(4-(hydroxymethyl)phenyl)-1H-indol-3-yl)-3-(4-(trifluoromethyl)phenyl)urea] belongs 1000 to 5000 nM; to `CC(C)(C)Oc1ccc(-c2ccc3[nH]cc(NC(=O)Nc4ccc(C(F)(F)F)cc4)c3c2)cc1` [Compound 288, 1-(5-(4-(tert-butoxy)phenyl)-1H-indol-3-yl)-3-(4-(trifluoromethyl)phenyl)urea], 200 to 1000 nM; to `CC(C)(O)Cn1cc(-c2ccc3[nH]cc(NC(=O)Nc4ccc(C(F)(F)F)cc4)c3c2)cn1` [Compound 297, 1-(5-(1-(2-hydroxy-2-methylpropyl)-1H-pyrazol-4-yl)-1H-indol-3-yl)-3-(4-(trifluoromethyl)phenyl)urea], 200 to 1000 nM.
